Test results reported in PMC10460844, “Real‐Time Monitoring of Multitarget Antimicrobial Mechanisms of Peptoids Using Label‐Free Imaging with Optical Diffraction Tomography” (Advanced Science, 2023).
Converted amounts (≈) assume the structure as drawn. Where a name gives a salt, the structure may show the parent alone. Square brackets hold non-standard residues; d marks the D form. Peptide text beside a SMILES is read from it. Nspe = C[C@H](NCC(=O)O)c1ccccc1; Nlys = NCCCCNCC(=O)O

Legend:
E. coli ATCC 25922 [1] = assay: Thioflavin S fluorescence imaging of intracellular aggregation; format: cell-based; conditions: 29 and peptoid 1 at 4 × MIC, control peptides 2 × MIC
[2] = Analytical reversed-phase HPLC elution (hydrophobicity); format: physicochemical; conditions: Table 1; analytical RP-HPLC, SunFire C18 […] 250 mm, water/ACN + 0.1% TFA, 5% B 2 min then linear to 100% B over 30 min, 1 mL/min, UV 220 nm; used as measure of hydrophobicity
In short: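 Analytical reversed-phase HPLC on a C18 column (4.6 × 250 mm, 5 μm) at 1 mL/min, water/acetonitrile each with 0.1% TFA. Held at 5% B for 2 min, then linear to 100% B over 30 min and held 5 min, with UV detection at 220 nm; retention time (tR) serves as hydrophobicity measure.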

E. coli ATCC 25922 [3] = format: cell-based; conditions: ODT, 30 min treatment; buforin-II 25 µM, melittin 25 µM, 29 4 × MIC
Procedure: Three‐dimensional (3D) optical diffraction tomography (ODT) and fluorescence images of live bacterial cells were obtained using an HT‐2H Mach−Zehnder interferometric microscope, combining both ODT and fluorescence imaging into a single unit (Tomocube, Daejon, South Korea). 3D Fluorescence imaging was carried out, using three light sources (385, 470, and 565 nm) via serial fluorescence image acquisition in multiple planes followed by 3D deconvolution. 3D correlative imaging, using a combination of ODT and fluorescence imaging was performed using commercial software (TomoStudioTM, Tomocube) as described previously^[ [23c] ^] Bacterial cells were grown overnight and diluted (≈10^7 CFU mL^−1) in cation‐adjusted MHB2 media. The cells were loaded onto 50 mm imaging dishes with a #1.5H glass coverslip bottom (TomoDish, Tomocube) that were precoated with 0.01% (w/v) poly‐L‐lysine (Sigma‐Aldrich) in water. After 30 min incubation at room temperature, the coverslips were washed twice with PBS (pH 7.4) to remove unattached cells, and the media was replaced with PBS for the duration of the imaging. To monitor the change in bacterial morphology, bacterial cells were treated with a peptoid (or with control AMPs) in PBS containing FM4‐64 (10 µg mL^−1) or propidium iodide (10 µg mL^−1). To analyze 3D refractive index (RI) tomograms, individual bacteria were captured using ODT equipped with a digital micromirror device (Tomocube). In more detail, the light scattered by the bacterial cells was collected by an objective lens (NA = 1.2, water dipping, UPLSAPO 60XW, Olympus) and recorded by a digital image sensor (CMOS camera, FL3‐U313Y3M‐C, FLIR Systems). Using a field retrieval algorithm, the amplitude and phase images were retrieved from the obtained multiple holograms, and then the 3D RI distribution was determined.
The analysis tool in the TomoStudio software (Tomocube) was used to measure specific values, including the refractive index (RI) and the cell volume of bacteria. These values were determined from RI increments (RII) of 0.190 fL pg^−1, which is known as a representative value and was assumed to be the same for most proteins.^[ [46] ^]

rat erythrocytes = assay: Hemolysis assay; format: cell-based; conditions: for HC10 / HC50 / Hmax (100 µM): Table S3, counter-ion exchange series; for HC10: 10% hemolysis in rat erythrocytes; for HC10 / HC50: mean of triplicate; for HC50: 50% hemolysis in rat erythrocytes; for Hmax (100 µM): hemolysis at 100 µM
In short: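 Washed Sprague-Dawley rat erythrocytes (10% suspension in PBS pH 7.4) mixed with peptoids (0–100 µM), 60 min at 37 °C; supernatant A540 expressed as % of 1% Triton X-100 lysis. HC10/HC50 are concentrations giving 10%/50% hemolysis; Hmax is hemolysis at 100 µM.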

[4] = system: MRC-5 human lung fibroblast cells; format: cell-based; conditions: Table S3, counter-ion exchange series; MTS assay, 24 h
Procedure: 4. Cell culture and cytotoxicity test using MTS assay
(Seoul, South Korea), human keratinocytes (HaCaT) were provided by the Skin Research Institute R&D Center of Amore Pacific Company (Yongin, South Korea). All cells were grown in Dulbecco's modified Eagle’s medium (DMEM) supplemented with 10% fetal bovine serum at 37 °C in an atmosphere containing 5% CO2. The 3-(4,5-dimethylthiazol-2- […]
assays were used to determine the effects of peptoids on cell growth.[4] Aliquots (100 µL) of media containing 1.3×10^4 MRC-5 cells/mL or 3×10^4 HaCaT cells/mL were distributed into each well of a 96-well plate (Eppendorf, Hamburg, Germany). The cells were allowed to attach and were grown in a humidified atmosphere containing 5% CO2 at 37 °C for 24 h.
When the cell density reached approximately 70% confluency, the medium was replaced with serial dilutions of the peptoid stock in DMEM and incubated for an additional 24 h. At this point, 20 µL of the CellTiter 96 aqueous non-radioactive cell proliferation assay reagent (Promega, Madison, WI, USA), which contains the tetrazolium compound, was added to each well. Plates were incubated for 4 h at 37 °C to allow time for metabolism. The MTS-formazan products in viable cells were measured at 490 nm using a microplate reader, and the percentage of cell viability (%) was calculated by comparing readings to the values of untreated wells. Percentage values of cell viability were calculated as A/(A control)×100, where A is the absorbance of the test well and A control is the average absorbance of wells containing untreated cells. […]

S. aureus ATCC 25923 = format: cell-based, Staphylococcus aureus; conditions: Table S3, counter-ion exchange series; mean of triplicate
Procedure: The antibacterial activity of the peptoids was evaluated against gram‐positive (Staphylococcus aureus, ATCC 25 923) and gram‐negative (Escherichia coli, ATCC 25 922) bacteria. […] The MIC of each peptoid was determined using a broth dilution assay. For each assay, the primary culture of either S. aureus or E. coli was grown overnight in cation‐adjusted Mueller Hinton broth 2 (MHB2) media at 37 °C with shaking. A secondary culture was prepared the next day, grown for 3–4 h, and then diluted in MHB2 media with a final concentration of 0.001% acetic acid and 0.02% bovine serum albumin to obtain a calculated optical density (OD) of 0.001. This corresponded to ≈2–5 × 10^5 colony‐forming units (CFU mL^−1) of bacteria. Using 96‐well polypropylene plates (Eppendorf, Hamburg, Germany), 100 µL of 2–5 × 10^5 CFU mL^−1 bacteria were added in triplicate for each peptoid. Each peptoid was assayed at six different concentrations in two‐fold serial dilutions. The maximum peptoid concentration was 25 µM. […] The MIC value determination was performed in triplicate. The MIC was defined as the lowest peptoid concentration that prevented turbidity during visual inspection.

E. coli ATCC 25922 [5] = format: cell-based, Escherichia coli; conditions: Table S3, counter-ion exchange series (TFA, HCl, AcOH salts); mean of triplicate
In short: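 Overnight MHB2 culture at 37 °C, subcultured 3–4 h, diluted to calculated OD 0.001 (≈2–5 × 10^5 CFU mL^−1) in MHB2 + 0.001% AcOH + 0.02% BSA. Six 2-fold peptoid dilutions, max 25 µM, triplicate. Visual turbidity read-out.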

CC[C@H](C)[C@H](NC(=O)CN)C(=O)NCC(=O)N[C@@H](C)C(=O)N[C@H](C(=O)N[C@@H](CC(C)C)C(=O)N[C@@H](CCCCN)C(=O)N[C@H](C(=O)N[C@@H](CC(C)C)C(=O)N[C@H](C(=O)N[C@H](C(=O)NCC(=O)N[C@@H](CC(C)C)C(=O)N1CCC[C@H]1C(=O)N[C@@H](C)C(=O)N[C@@H](CC(C)C)C(=O)N[C@H](C(=O)N[C@@H](CO)C(=O)N[C@@H](Cc1c[nH]c2ccccc12)C(=O)N[C@H](C(=O)N[C@@H](CCCCN)C(=O)N[C@@H](CCCNC(=N)N)C(=O)N[C@@H](CCCCN)C(=O)N[C@@H](CCCNC(=N)N)C(=O)N[C@@H](CCC(N)=O)C(=O)N[C@@H](CCC(N)=O)C(N)=O)[C@@H](C)CC)[C@@H](C)CC)[C@@H](C)O)[C@@H](C)O)C(C)C)C(C)C [Melittin, reference compound]
Th S fluorescence (intracellular biomass aggregation) (E. coli ATCC 25922 [1]): enhanced Th S fluorescence | HPLC elution (%ACN) [2]: 55.4 %ACN | change of cell volume (E. coli ATCC 25922 [3]): notable reduction in cell volume | change of mean RI value versus control cells (E. coli ATCC 25922 [3]): significantly increased mean RI values | H max (100 µM) (rat erythrocytes; percentage of hemolysis at the highest concentration tested (100 µM), rat erythrocytes): 105.7 ± 17.6%

C[C@@H](c1ccccc1)N(CC(N)=O)C(=O)CN(C(=O)CN(CCCCN)C(=O)CN(C(=O)CN(C(=O)CN(CCCCN)C(=O)CN(C(=O)CN(C(=O)CN(CCCCN)C(=O)CN(C(=O)CN(C(=O)CNCCCCN)[C@@H](C)c1ccccc1)[C@@H](C)c1ccccc1)[C@@H](C)c1ccccc1)[C@@H](C)c1ccccc1)[C@@H](C)c1ccccc1)[C@@H](C)c1ccccc1)[C@@H](C)c1ccccc1 [1-HCl] (H-[Nlys][Nspe][Nspe][Nlys][Nspe][Nspe][Nlys][Nspe][Nspe][Nlys][Nspe][Nspe]-NH2)
LC50 MRC-5 [4]: 11.8 µM | MIC S. aureus ATCC25923 (S. aureus ATCC 25923): 1.6 µM | MIC E. coli ATCC25922 (E. coli ATCC 25922 [5]): 6.3 µM | HC10 (rat erythrocytes): 27.6 µM | HC50 (rat erythrocytes): 83.3 µM | Hmax (100 µM) (rat erythrocytes): 61.5±0.9%

C[C@@H](c1ccccc1)N(CC(N)=O)C(=O)CN(C(=O)CN(CCCCN)C(=O)CN(C(=O)CN(C(=O)CN(CCCCN)C(=O)CN(C(=O)CN(C(=O)CN(CCCCN)C(=O)CN(C(=O)CN(C(=O)CNCCCCN)[C@@H](C)c1ccccc1)[C@@H](C)c1ccccc1)[C@@H](C)c1ccccc1)[C@@H](C)c1ccccc1)[C@@H](C)c1ccccc1)[C@@H](C)c1ccccc1)[C@@H](C)c1ccccc1 [1-AcOH] (H-[Nlys][Nspe][Nspe][Nlys][Nspe][Nspe][Nlys][Nspe][Nspe][Nlys][Nspe][Nspe]-NH2)
LC50 MRC-5 [4]: 8.6 µM | MIC S. aureus ATCC25923 (S. aureus ATCC 25923): 3.1 µM (≈ 5.64 µg/mL) | MIC E. coli ATCC25922 (E. coli ATCC 25922 [5]): 12.5 µM | HC10 (rat erythrocytes): 25.0 µM | HC50 (rat erythrocytes): 78.6 µM | Hmax (100 µM) (rat erythrocytes): 58.2±1.7%
